Experimental data as given in US10898548B2, “Modulators of protein tyrosine phosphatase and uses thereof” (LEUVAS THERAPEUTICS, priority 2015, dated 2021).
Marks after values point to notes of the source that are not given here.

Assays:
Assay type in all cases: in vivo, mouse
[1] = system: Hbb^th3/+ mice (β-thalassemia model); experiment: extramedullary erythropoiesis in spleen; details: treated mice, 3 weeks
Procedure: (§1) Wild-type C57BL/6J mice and the mouse model for β-thalassemia (designated as Hbb^th3/+) were used for these studies. Flow cytometric analysis and sorting of mouse bone marrow and spleen precursors were performed using standard protocols using markers for CD44 and TER119 and cell size (forward scatter) to distinguish erythroid precursors at each distinct developmental stage. Forward scatter high-CD44+Ter119+ cells represents total erythroblasts (or erythroid mass in bone marrow or spleen). These erythroblasts can be further analyzed and sorted in subpopulations: population I: pro-erythroblasts; population II: basophilic erythroblasts; population III: polychromatic erythroblasts; population IV: orthochromatic erythroblasts, as described in Matte et al 2015, Antioxid. Redox Signal. 2015 23(16):1284-1297. Population II, III and IV corresponding to basophilic erythroblasts, polychromatic erythroblasts and orthochromatic erythroblasts were sorted from bone marrow as previously described (Matte et al 2015 Antioxid. Redox Signal. 2015 23(16):1284-1297).

[2] = system: Hbb^th3/+ mice (β-thalassemia model); experiment: percent of soluble alpha globin in red cells; details: TAT-ICD 5 mg/kg i.p once every other day for 3 weeks
Description: We also observed a significant improvement in the α/β globin ratio with treatment of beta-thalassemic mice, a key measure of successful treatment of beta-thalassemia. The mutations in the beta-globin gene in beta-thalassemia results in absent or reduced synthesis of beta-globin chains leading to unbalanced globin chain synthesis and unpaired alpha-chain that form highly toxic aggregates in erythroid progenitors and red blood cells, and can be measured as a decrease in soluble alpha globulin. We measured the amount of soluble vs insoluble globulin not bound to heme (Table 38) and observed a significant (P<0001; 2 tailed T test) decrease in the percent of soluble alpha-globin in the beta-thalassemic mice compared to wild type mice (Table 38).

[3] = system: Hbb^th3/+ mice (β-thalassemia model); experiment: hematological parameters and red cell indices in β-thalassemic and wild-type mice; parameters: CH (hemoglobin concentration): unit not given here; details: TAT-ICD 5 mg/kg i.p. once every other day for 3 weeks
Procedure: as §1
Wild-type and Hbb^3th/+ were treated with TAT-ICD at 5 mg/kg i.p once every other day for 3 weeks. […] Hematological parameters, red blood cell indices and reticulocyte counts were determined using standard procedures. Table 37 summarizes the effect of treatment of WT and HBB mice with TAT-ICD9 on key hematological parameters and red cell indices.

[4] = system: Hbb^th3/+ mice (β-thalassemia model); experiment: bone marrow erythroid precursors by flow cytometry (CD44, TER119); details: for percent of bone marrow erythroid precursors (fsc high CD44+TER119+ cells), Mean: ICD-Treated, 3 weeks
Procedure: as §1
Ineffective erythropoiesis in β-thalassemia is characterized by a block in cell maturation with accumulation of erythroid precursors and increased cell apoptosis in late phase erythropoiesis in the bone marrow.
Treatment of Hbb^th3/+ mice with PTPRG ICD results in a statistically significant increases in the percent of proerythroblasts (P<0.001) back to normal levels (5.9+/−0.6). In addition, ROS levels, which are increased in all four populations in Hbb mice compared to wild type mice are decreased PTPRG ICD-treated mice in all four populations, in agreement with the decrease in ROS levels in circulating red cells (Table 39).

Substance: TAT-ICD: fusion recombinant protein SEQ ID 5: PTPRG intracellular domain aa 797-1445 fused to 13 aa TAT sequence
- extramedullar erythropoiesis in spleen [1]: trend to reduction
- percent of soluble alpha globulin ([2]; Hbb^th3/+ mice, Vehicle-treated 87.9): 92.5* %
- percent of soluble alpha globulin ([2]; Wild-type mice, Vehicle-treated 98.4): 97.9%
- CH (hemoglobin concentration) ([3]; Hbb3th/+ mice, n = 4): 10.4 ± 0.3
- CHr (reticulocyte hemoglobin concentration) ([3]; Hbb3th/+ mice, n = 4): 12.0 ± 0.39 pg
- Hb (hemoglobin) ([3]; Hbb3th/+ mice, n = 4): 10.1 ± 0.3 g/dL
- Hct (hematocrit) ([3]; Hbb3th/+ mice, n = 4): 34.8 ± 4.9 %
- MCH (mean corpuscular hemoglobin) ([3]; Hbb3th/+ mice, n = 4): 10.2 ± 0.4 pg
- MCV (mean corpuscular volume) ([3]; Hbb3th/+ mice, n = 4): 393 ± 0.9 fL
- MCVr (mean corpuscular volume reticulocytes) ([3]; Hbb3th/+ mice, n = 4): 49.2 ± 1.2 fL
- Neutrophil ([3]; Hbb3th/+ mice, n = 4): 1407 ± 597 cells/uL
- RDW (red cell distribution width) ([3]; Hbb3th/+ mice, n = 4): 25.7 ± 1.0 %
- Retics (reticulocytes) ([3]; Hbb3th/+ mice, n = 4): 18.2 ± 2.0 %
- WBC ([3]; Hbb3th/+ mice, n = 4): 9125 ± 1021 cells/uL
- CH (hemoglobin concentration) ([3]; WT mice, n = 3): 13.6 ± 0.2
- CHr (reticulocyte hemoglobin concentration) ([3]; WT mice, n = 3): 14.0 ± 0.1 pg
- Hb (hemoglobin) ([3]; WT mice, n = 3): 14.9 ± 0.4 g/dL
- Hct (hematocrit) ([3]; WT mice, n = 3): 46.3 ± 0.5%
- MCH (mean corpuscular hemoglobin) ([3]; WT mice, n = 3): 15.0 ± 0.7 pg
- MCV (mean corpuscular volume) ([3]; WT mice, n = 3): 50.1 ± 0.1 fL
- MCVr (mean corpuscular volume reticulocytes) ([3]; WT mice, n = 3): 55.0 ± 0.3 fL
- Neutrophil ([3]; WT mice, n = 3): 1833 ± 461 cells/uL
- RDW (red cell distribution width) ([3]; WT mice, n = 3): 13.6 ± 0.3 %
- Retics (reticulocytes) ([3]; WT mice, n = 3): 4.3 ± 0.5 %
- WBC ([3]; WT mice, n = 3): 6005 ± 980 cells/uL
- percent of bone marrow erythroid precursors (fsc high CD44+TER119+ cells), Mean ([4]; Hbb^th3/+ mice): 23.8* percent
- percent of bone marrow erythroid precursors (fsc high CD44+TER119+ cells), Mean ([4]; Wild-type mice): 13.9%
- percent of pro-erythroblasts (population I) in bone marrow ([4]; treated Hbb^th3/+ mice, untreated Hbb^th3/+ 3.6+/−0.9, wild-type 6.5+/−0.9): 5.9+/−0.6%
